Reference: US20100256196A1, “Biomarkers for Atherosclerosis” (IKFE, priority 2008, published 2010)

Legend:
[1] = test system: patients with type 2 diabetes and established atherosclerosis; assay: Clinical and biochemical observation parameters, double-blind placebo-controlled study, 4 weeks add-on treatment; format: in vivo, human; conditions: mean ± SD; for Glucose: fasting; for HOMAIR: insulin resistance score; for IL-6 / MIF / MMP-9: plasma protein; for Adiponectin / Angiotensin II / Complement factor C3 / Insulin / Intact proinsulin / P-seclectin / sCD40L: plasma
[2] = test system: NFκB and NFκB-modulated cytokines in circulating peripheral mononuclear cells; assay: mRNA expression in circulating mononuclear cells (CD14+ monocytes/macrophages), calibrator-normalized relative quantification by LightCycler PCR; format: in vivo, human; conditions: normalized ratio, reference gene β-actin, mean ± SD
Excerpt: Blood for the measurement of fasting glucose, MMP-9, and hsCRP was taken at baseline and after 3, 7, 10, 14 and 28 days of study treatment. Blood for assessment of the mRNA expression profile of circulating mononuclear cells as well as for assessment of circulating plasma levels of HbAlc, Insulin, Intact Proinsulin, Adiponectin, IL-6, sCD40L, P-Selectin, MIF, Angiotensin II, complement factor 3, and blood lipids were obtained at baseline and at the end of the study. Insulin resistance was calculated using the HOMAIR score at baseline and study endpoint as published previously (29, 30).
Isolation of MNC from whole blood was performed as a density gradient centrifugation by means of the ACCUSPIN System-HISTOPAQUE-1077 (Sigma-Aldrich Chemie GmbH, Steinheim, Germany). The isolation of macrophages and monocytes from the collected cells was performed by MACS magnetic cell sorting with CD14 MicroBeads (human) (Miltenyi Biotec GmbH, Bergisch Gladbach, Germany). The CD14 positive (CD14+) cells (macrophages and monocytes) were first magnetically labeled with MACS CD14 MicroBeads. The cell suspension was loaded on a MS MACS Column which was placed in the magnetic field of a MiniMACS Separator. The magnetically labeled CD14+ cells were retained in the column and separated from the unlabelled cell fraction.
The mRNA isolation from macrophages and monocytes was performed with the High Pure RNA Isolation Kit (Roche Applied Science, Penzberg, Germany). The cells were first lysed and the intact and undegraded RNA was adsorbed to a glass fibre fleece. Simultaneously, RNAses were inactivated. Furthermore, residues of contaminating DNA were digested and the RNA was purified from salts, proteins and other impurities. Purity of the isolated mRNA was assessed by real-time PCR (LightCycler II, Roche Diagnostics, Mannheim, Germany). The transcription of mRNA in cDNA was performed on a thermocycler (Biozym Diagnostik GmbH, Oldendorf, Germany) according to a standardized protocol (‘Transcriptor First Strand cDNA Synthesis Kit’, Instruction Manual Version 1, 2004, Roche Applied Science, Penzberg, Germany).
Sequence specific primers were designed by TIB MOLBIOL (Syntheselabor GmbH, Berlin, Germany) to amplify the gene sequences of Rel-A, p105, IκB-α, IκB-β and IL-6. The primers for TNF-α were taken from “Rapid Cycle Real-Time PCR Methods and Applications Quantification” (31). The primers for MIF and MMP-9 were reproduced from previous reports (12, 32). A list of the primers used for the quantification experiments, the primer-specific PCR protocols and the specific amplification product melting points are provided in Table 1. An additional agarose gel electrophoresis assay was performed to verify the correct length of the amplification products.
The RNA quantification in this study, was performed by means of a calibrator-normalized relative quantification method based on the LightCycler II system (Roche Diagnostics, Mannheim, Germany), where quantification of a target and a reference gene is a function of PCR efficiency and the sample crossing point. The sample crossing point is the amplification cycle during an amplification assay, at which the fluorescence of a probe rises above background fluorescence. This occurs usually at the second derivative maximum (fastest change in fluorescence). […] In these experiments, β-actin is the most abundant protein in eukaryotic cells with constant expression (33). […] The principle of this method is the determination of the relative amount of the target gene and the reference gene for each sample and for the calibrator. […] All experiments were performed in triple replications.
Data are presented as arithmetic mean±standard deviation (SD) for continuous variables or mean±SEM for percent changes from baseline and as the number/proportion of patients for categorical variables.

[3] = test system: MIF; conditions: six week treatment, eight non-diabetic patients with obesity; cited from earlier work
[4] = in vivo; cited from earlier work
[5] = endpoint, after 4 weeks 45 mg pioglitazone add-on
[6] = endpoint, after 4 weeks of pioglitazone

Question: Which BMI [1, 5] does the source give for `CCc1ccc(CCOc2ccc(CC3SC(=O)NC3=O)cc2)nc1` (stereo not drawn) [pioglitazone] here?
Answer: 31.4 ± 4.5 kg/m^2

Question: What about the Diastolic blood pressure [1, 5] of the same compound?
Answer: 80 ± 11 mmHg

Question: What about the HDL cholesterol [1, 5] of the same compound?
Answer: 1.26 ± 0.26 mmol/L

Question: And the HbA1c [1, 5]?
Answer: 6.8 ± 0.9%

Question: What about the LDL cholesterol [1, 5] of the same compound?
Answer: 2.52 ± 0.76 mmol/L

Question: And the Systolic blood pressure [1, 5]?
Answer: 137 ± 18 mmHg

Question: What about the “Total Cholesterol” value [1, 5] of the same compound?
Answer: 4.78 ± 1.09 mmol/L

Question: And the hsCRP [1, 5]?
Answer: 1.9 ± 1.7 mg/L

Question: And the sICAM [1, 5]?
Answer: 319 ± 86 µg/L

Question: And the sVCAM [1, 5]?
Answer: 943 ± 452 µg/L

Question: And the Glucose [1, 5]?
Answer: 122 ± 35 mg/dL

Question: And the Glucose ([1]; pioglitazone arm, baseline)?
Answer: 142 ± 40 mg/dL

Question: What about the HOMAIR [1, 5] of the same compound?
Answer: 3.9 ± 2.6

Question: What about the HOMAIR ([1]; pioglitazone arm, baseline) of the same compound?
Answer: 5.9 ± 4.4

Question: What about the BMI ([1]; pioglitazone arm, baseline) of the same compound?
Answer: 31.0 ± 4.3 kg/m^2

Question: And the Diastolic blood pressure ([1]; pioglitazone arm, baseline)?
Answer: 83 ± 11 mmHg

Question: And the HDL cholesterol ([1]; pioglitazone arm, baseline)?
Answer: 1.18 ± 0.24 mmol/L

Question: What about the HbA1c ([1]; pioglitazone arm, baseline) of the same compound?
Answer: 7.0 ± 1.1%

Question: And the LDL cholesterol ([1]; pioglitazone arm, baseline)?
Answer: 2.46 ± 0.80 mmol/L

Question: And the Systolic blood pressure ([1]; pioglitazone arm, baseline)?
Answer: 144 ± 15 mmHg

Question: What about the “Total Cholesterol” value ([1]; pioglitazone arm, baseline) of the same compound?
Answer: 4.63 ± 0.99 mmol/L

Question: And the hsCRP ([1]; pioglitazone arm, baseline)?
Answer: 2.9 ± 1.7 mg/L

Question: What about the sICAM ([1]; pioglitazone arm, baseline) of the same compound?
Answer: 326 ± 90 µg/L

Question: What about the sVCAM ([1]; pioglitazone arm, baseline) of the same compound?
Answer: 915 ± 409 µg/L

Question: And the IL-6 [1, 5]?
Answer: 3.2 ± 0.1 ng/L

Question: What about the MIF [1, 5] of the same compound?
Answer: 9.6 ± 3.5 µg/L

Question: And the MMP-9 [1, 5]?
Answer: 284 ± 101 µg/L

Question: What about the IL-6 ([1]; pioglitazone arm, baseline) of the same compound?
Answer: 3.3 ± 0.5 ng/L

Question: What about the MIF ([1]; pioglitazone arm, baseline) of the same compound?
Answer: 10.4 ± 5.3 µg/L

Question: What about the MMP-9 ([1]; pioglitazone arm, baseline) of the same compound?
Answer: 344 ± 118 µg/L

Question: What about the Adiponectin [1, 5] of the same compound?
Answer: 22.1 ± 9.1 µg/mL

Question: What about the “Angiotensin II” value [1, 5] of the same compound?
Answer: 8.0 ± 8.8 µg/L

Question: And the “Complement factor C3” value [1, 5]?
Answer: 1.5 ± 0.3 g/L

Question: What about the Insulin [1, 5] of the same compound?
Answer: 12 ± 7 μU/ml

Question: What about the Intact proinsulin [1, 5] of the same compound?
Answer: 19 ± 17 pmol/L

Question: And the P-seclectin [1, 5]?
Answer: 93 ± 22 µg/L

Question: And the sCD40L [1, 5]?
Answer: 1.1 ± 1.1 µg/L

Question: And the Adiponectin ([1]; pioglitazone arm, baseline)?
Answer: 8.7 ± 3.5 µg/mL

Question: What about the “Angiotensin II” value ([1]; pioglitazone arm, baseline) of the same compound?
Answer: 10.2 ± 9.2 µg/L

Question: What about the “Complement factor C3” value ([1]; pioglitazone arm, baseline) of the same compound?
Answer: 1.6 ± 0.4 g/L

Question: What about the Insulin ([1]; pioglitazone arm, baseline) of the same compound?
Answer: 17 ± 10 μU/ml

Question: And the Intact proinsulin ([1]; pioglitazone arm, baseline)?
Answer: 30 ± 37 pmol/L

Question: And the P-seclectin ([1]; pioglitazone arm, baseline)?
Answer: 95 ± 20 µg/L

Question: And the sCD40L ([1]; pioglitazone arm, baseline)?
Answer: 1.6 ± 1.8 µg/L

Question: What about the “IL-6 mRNA expression” value [2, 6] of the same compound?
Answer: 1.05 ± 0.46

Question: What about the “IκB-β mRNA expression” value [2, 6] of the same compound?
Answer: 3.30 ± 2.41

Question: What about the “MIF mRNA expression” value [2, 6] of the same compound?
Answer: 0.84 ± 0.31

Question: And the “MMP-9 mRNA expression” value [2, 6]?
Answer: 1.48 ± 1.18

Question: And the “RelA (p65 subunit of NF-κB) mRNA expression” value [2, 6]?
Answer: 0.95 ± 0.44

Question: What about the “TNFα mRNA expression” value [2, 6] of the same compound?
Answer: 1.70 ± 0.93

Question: What about the “p105 (p50 subunit of NF-κB) mRNA expression” value [2, 6] of the same compound?
Answer: 1.33 ± 0.46

Question: What about the “IL-6 mRNA expression” value ([2]; pioglitazone arm, baseline) of the same compound?
Answer: 1.13 ± 0.52

Question: And the “IκB-β mRNA expression” value ([2]; pioglitazone arm, baseline)?
Answer: 3.17 ± 2.05

Question: And the “MIF mRNA expression” value ([2]; pioglitazone arm, baseline)?
Answer: 0.98 ± 0.40

Question: And the “MMP-9 mRNA expression” value ([2]; pioglitazone arm, baseline)?
Answer: 2.29 ± 2.68

Question: What about the “RelA (p65 subunit of NF-κB) mRNA expression” value ([2]; pioglitazone arm, baseline) of the same compound?
Answer: 1.20 ± 0.74

Question: And the “TNFα mRNA expression” value ([2]; pioglitazone arm, baseline)?
Answer: 1.88 ± 1.20

Question: What about the “p105 (p50 subunit of NF-κB) mRNA expression” value ([2]; pioglitazone arm, baseline) of the same compound?
Answer: 1.63 ± 0.80

Question: With `CN(C)C(=N)N=C(N)N` [metformin] as the compound, how does the “Plasma concentration of MIF and transcription of MIF mRNA in mononuclear cells” value [3] read?
Answer: reduced

Question: With `Cc1c(C)c2c(c(C)c1O)CCC(C)(COc1ccc(CC3SC(=O)NC3=O)cc1)O2` (stereo not drawn) [troglitazone] as the compound, how does the “Reason for being taken from the market” value [4] read?
Answer: hepatotoxiciy
